Source: ChEMBL document CHEMBL3769371, “1-[(2E)-3-Phenylprop-2-enoyl]-1H-benzimidazoles as anticancer agents: synthesis, crystal structure analysis and binding studies of the most potent anticancer molecule with serum albumin” (Medchemcomm, 2015)

Legend:
[1] = Cytotoxicity against human Hs 578T cells after 48 hrs by SRB assay; type: functional
MDA-MB-435 = experiment: Cytotoxicity against human MDA-MB-435 cells assessed as cell growth at 10^-5 M after 48 hrs by SRB assay; type: functional; conditions: MDA-MB-435, 48 h, read-out: Activity
[2] = Cytotoxicity against human SF539 cells assessed as cell growth at 10^-5 M after 48 hrs by SRB assay; type: functional; conditions: SF-539, 48 h, read-out: Activity
MDA-MB-468 = experiment: Cytotoxicity against human MDA-MB-468 cells assessed as cell growth at 10^-5 M after 48 hrs by SRB assay; type: functional; conditions: MDA-MB-468, 48 h, read-out: Activity
[3] = Cytotoxicity against human UACC62 cells assessed as cell growth at 10^-5 M after 48 hrs by SRB assay; type: functional; conditions: UACC-62, 48 h, read-out: Activity
[4] = Cytotoxicity against human LOXIMVI cells assessed as cell growth at 10^-5 M after 48 hrs by SRB assay; type: functional; conditions: LOX IMVI, read-out: Activity
[5] = Cytotoxicity against human IGROV1 cells assessed as cell growth at 10^-5 M after 48 hrs by SRB assay; type: functional; conditions: IGROV-1, 48 h, read-out: Activity
[6] = Cytotoxicity against human Caki1 cells after 48 hrs by SRB assay; type: functional; conditions: CAKI-1, 48 h
M14 = experiment: Cytotoxicity against human M14 cells after 48 hrs by SRB assay; type: functional; conditions: M14, 48 h
Albumin [7] = biological target: T1, Albumin (Homo sapiens, UniProt P02768); experiment: Binding affinity to human serum albumin assessed Stern-Volmer quenching constant at 0.25 to 2 uM at 288 K by fluorescence microscopic analysis; type: ADME; conditions: isolated protein
[8] = Cytotoxicity against human SW620 cells after 48 hrs by SRB assay; type: functional; conditions: SW-620, 48 h
MDA-MB-231 = experiment: Cytotoxicity against human MDA-MB-231 cells after 48 hrs by SRB assay; type: functional; conditions: MDA-MB-231, 48 h
[9] = Antiproliferative activity against human TK10 cells at 10'5 M; type: functional, TK-10
[10] = Cytotoxicity against human HL-60(TB) cells after 48 hrs by SRB assay; type: functional; conditions: HL-60, 48 h
Malme-3M = experiment: Antiproliferative activity against human MALME-3M cells at 10'5 M; type: functional
ACHN = experiment: Cytotoxicity against human ACHN cells assessed as cell growth at 10^-5 M after 48 hrs by SRB assay; type: functional; conditions: read-out: Activity
NCI-H23 = experiment: Cytotoxicity against human NCI-H23 cells after 48 hrs by SRB assay; type: functional; conditions: NCI-H23, 48 h
[11] = Cytotoxicity against human RPMI8226 cells after 48 hrs by SRB assay; type: functional; conditions: RPMI-8226, 48 h
Albumin [12] = biological target: T1, Albumin; experiment: Binding affinity to human serum albumin assessed Stern-Volmer quenching constant at 0.25 to 2 uM at 298 K by fluorescence microscopic analysis; type: ADME; conditions: isolated protein
SK-MEL-28 = experiment: Cytotoxicity against human SK-MEL-28 cells assessed as cell growth at 10^-5 M after 48 hrs by SRB assay; type: functional; conditions: SK-MEL-28, 48 h, read-out: Activity
Albumin [13] = biological target: T1, Albumin; experiment: Binding affinity to human serum albumin at 0.25 uM at 303 K by fluorescence microscopic analysis in the presence of Cu2+; type: ADME; conditions: isolated protein
[14] = Cytotoxicity against human HCT116 cells after 48 hrs by SRB assay; type: functional; conditions: HCT-116, 48 h
Albumin [15] = biological target: T1, Albumin; experiment: Binding affinity to human serum albumin assessed as fluorescence quenching in steady state at 0.25 uM at 303 K by fluorescence microscopic analysis; type: ADME; conditions: isolated protein
KM12 = experiment: Cytotoxicity against human KM12 cells after 48 hrs by SRB assay; type: functional; conditions: KM12, 48 h
[16] = Cytotoxicity against human COLO205 cells assessed as cell growth at 10^-5 M after 48 hrs by SRB assay; type: functional; conditions: COLO 205, 48 h, read-out: Activity
Albumin [17] = biological target: T1, Albumin; experiment: Binding affinity to human serum albumin at 0.25 uM at 303 K by fluorescence microscopic analysis in the presence of Ni2+; type: ADME; conditions: isolated protein
Albumin [18] = biological target: T1, Albumin; experiment: Binding affinity to human serum albumin at 0.25 to 2 uM at 303 K by fluorescence microscopic analysis in the presence of digitoxin; type: ADME; conditions: isolated protein
[19] = Antiproliferative activity against human DU145 cells at 10'5 M; type: functional, DU-145
Albumin [20] = biological target: T1, Albumin; experiment: Binding affinity to human serum albumin at 0.25 uM at 303 K by fluorescence microscopic analysis in the presence of Zn2+; type: ADME; conditions: isolated protein
[21] = Cytotoxicity against human PC3 cells assessed as cell growth at 10^-5 M after 48 hrs by SRB assay; type: functional; conditions: PC-3, 48 h, read-out: Activity
[22] = Antiproliferative activity against human OVCAR4 cells at 10'5 M; type: functional, OVCAR-4
[23] = Antiproliferative activity against human SKOV3 cells at 10'5 M; type: functional, SK-OV-3
[24] = Cytotoxicity against human HOP92 cells assessed as cell growth at 10^-5 M after 48 hrs by SRB assay; type: functional; conditions: HOP-92, 48 h, read-out: Activity
[25] = Cytotoxicity against human HCT116 cells assessed as cell growth at 10^-5 M after 48 hrs by SRB assay; type: functional; conditions: HCT-116, 48 h, read-out: Activity
MCF7 [26] = experiment: Cytotoxicity against human MCF7 cells assessed as cell growth at 10^-5 M after 48 hrs by SRB assay; type: functional; conditions: MCF7, 48 h, read-out: Activity
MCF7 [27] = experiment: Antiproliferative activity against human MCF7 cells at 10'5 M; type: functional
NCI-H322M = experiment: Cytotoxicity against human NCI-H322M cells assessed as cell growth at 10^-5 M after 48 hrs by SRB assay; type: functional; conditions: read-out: Activity
A549 = experiment: Cytotoxicity against human A549 cells after 48 hrs by SRB assay; type: functional; conditions: A549, 48 h
[28] = Cytotoxicity against human TK10 cells assessed as cell growth at 10^-5 M after 48 hrs by SRB assay; type: functional; conditions: TK-10, 48 h, read-out: Activity
[29] = Cytotoxicity against human HCC2998 cells after 48 hrs by SRB assay; type: functional; conditions: HCC 2998, 48 h
[30] = read-out: LC50 (the source's name)

T1 sequence (P02768 whole entry): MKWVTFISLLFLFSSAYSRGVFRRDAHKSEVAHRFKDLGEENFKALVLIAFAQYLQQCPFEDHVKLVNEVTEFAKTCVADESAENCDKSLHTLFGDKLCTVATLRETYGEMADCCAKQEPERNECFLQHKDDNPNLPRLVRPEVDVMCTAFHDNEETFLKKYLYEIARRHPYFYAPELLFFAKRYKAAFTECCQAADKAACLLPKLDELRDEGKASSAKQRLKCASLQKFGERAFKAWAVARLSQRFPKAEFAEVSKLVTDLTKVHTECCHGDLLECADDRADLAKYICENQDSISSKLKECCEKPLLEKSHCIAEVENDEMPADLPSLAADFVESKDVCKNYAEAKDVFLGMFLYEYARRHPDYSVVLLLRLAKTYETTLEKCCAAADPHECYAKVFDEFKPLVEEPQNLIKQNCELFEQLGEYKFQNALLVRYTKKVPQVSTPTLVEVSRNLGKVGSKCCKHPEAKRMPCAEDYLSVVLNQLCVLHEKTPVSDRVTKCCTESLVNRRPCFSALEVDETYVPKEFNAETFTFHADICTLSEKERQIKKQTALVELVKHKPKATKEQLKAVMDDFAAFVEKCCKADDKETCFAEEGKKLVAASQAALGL

Structure (SMILES): O=C(/C=C/c1ccccc1)n1c(-c2ccc(Cl)cc2)nc2ccccc21
- GI50 [1]: 2.57 µM
- TGI [1]: 17.9 µM
- CC50 [1, 30]: > 100 µM
- growth at 10 µM (MDA-MB-435): -44.3%
- growth at 10 µM [2]: -48.4%
- growth at 10 µM (MDA-MB-468): -6.61%
- growth at 10 µM [3]: -84.7%
- growth at 10 µM [4]: -82.9%
- growth at 10 µM [5]: 10.4%
- GI50 [6]: 1.18 µM
- TGI [6]: 10 µM
- CC50 [6, 30]: 31.7 µM
- GI50 (M14): 1.63 µM
- TGI (M14): 5.74 µM
- CC50 (M14; [30]): 26 µM
- KSV (Albumin [7]): 2.03 ×10⁵ L/mol
- GI50 [8]: 1.44 µM
- TGI [8]: 2.93 µM
- CC50 [8, 30]: 5.97 µM
- GI50 (MDA-MB-231): 1.88 µM
- TGI (MDA-MB-231): 5.18 µM
- CC50 (MDA-MB-231; [30]): 25.4 µM
- growth inhibition (GI) [9]: 81.42%
- GI50 [10]: 1.4 µM
- TGI [10]: 4.88 µM
- CC50 [10, 30]: > 100 µM
- growth inhibition (GI) (Malme-3M): 84.12%
- growth at 10 µM (ACHN): -49.9%
- GI50 (NCI-H23): 2.17 µM
- TGI (NCI-H23): 6 µM
- CC50 (NCI-H23; [30]): > 100 µM
- GI50 [11]: 0.61 µM
- TGI [11]: 3.82 µM
- CC50 [11, 30]: > 100 µM
- KSV (Albumin [12]): 1.37 ×10⁵ L/mol
- growth at 10 µM (SK-MEL-28): -65.4%
- K (Albumin [13]): 2.44 ×10³ /mol
- GI50 [14]: 1.8 µM
- TGI [14]: 3.45 µM
- CC50 [14, 30]: 6.61 µM
- K (Albumin [15]): 5.68 ×10³ /mol
- GI50 (KM12): 1.51 µM
- TGI (KM12): 3.71 µM
- CC50 (KM12; [30]): 9.16 µM
- growth at 10 µM [16]: -60.8%
- K (Albumin [17]): 5.35 ×10³ /mol
- K (Albumin [18]): 5.73 ×10³ /M
- growth inhibition (GI) [19]: 88.87%
- K (Albumin [20]): 2.26 ×10³ /mol
- growth at 10 µM [21]: 6.09%
- growth inhibition (GI) [22]: 69.96%
- growth inhibition (GI) [23]: 76.05%
- growth at 10 µM [24]: -39.4%
- growth at 10 µM [25]: -71.5%
- growth at 10 µM (MCF7 [26]): 10.3%
- growth inhibition (GI) (MCF7 [27]): 89.71%
- growth at 10 µM (NCI-H322M): 45%
- GI50 (A549): 0.38 µM
- TGI (A549): 1.88 µM
- CC50 (A549; [30]): > 100 µM
- growth at 10 µM [28]: 18.6%
- GI50 [29]: 1.41 µM
- TGI [29]: 2.78 µM
- CC50 [29, 30]: 5.49 µM
